# Data from PMC11802567, “Anti-cancer activity of synthetic gefitinib-1,2,3-triazole derivatives against Hela cells via induction of apoptosis” (Frontiers in Chemistry, 2025).
# Like-named read-outs stand apart in the source and are kept apart here.
# Experiments:
# Hela cells [1] = experiment: MTT cell viability assay, Hela cells; format: cell-based; settings: Homo sapiens, 48 h; for viability at 10 µM: mean ± SEM (n = 3)
# [2] = tested on: Bax, Bcl-2, caspase 9, caspase 3, PARP1 in Hela cells; experiment: Western blot of apoptosis-associated proteins in Hela cells; format: cell-based, human; settings: 10 and 20 μM
# Source text: To explore whether the induction of apoptosis caused by compound c13 was associated with the activation of the apoptosis-related protein, a western blot was used to detect the expression of the protein including Bax and Bcl-2. […] Furthermore, the ratio of Bax to Bcl-2 was raised after being treated with compound c13, leading to apoptosis in Hela cells.
# To determine the potential function of compound c13 in the regulation of the apoptosis signaling pathway, downstream key proteins containing caspase 3, caspase 9, and PARP1 were detected by western blot. […] Besides, a corresponding increase in the levels of cleaved-caspase 3, and cleaved-PARP1 was observed (Figure 6).
# Whole cell extracts were prepared by lysing cells on ice for 30 min using RIPA lysis buffer (Beyotime Biotechnology, Shanghai, China). Following centrifugation at 12, 000 g for 15 min at 4°C, the supernatants were collected. The protein content concentrations of samples were determined according to the manufacturer’s protocol for the BCA protein assay kit (Thermo Scientific, Rockford, IL, United States).
# Equal amounts of protein were resolved using sodium dodecyl sulfate polyacrylamide gel electrophoresis (SDS-PAGE) and subsequently transferred to a 0.2 μm nitrocellulose membrane. The membranes underwent blocking for a minimum of 1 h in 5% skimmed milk diluted in TBST. Subsequently, the blots were incubated overnight at 4°C with primary antibodies. Primary antibodies used were include, Bcl-2 (ABclonal, Wuhan, China), Bax (Wanleibio, Shenyang, China), Caspase 9/p35/p10 antibody (Proteintech, Wuhan, China), Caspase 3/p17/p19 (Proteintech, Wuhan, China), PARP-1 (Proteintech, Wuhan, China), β-actin (Sigma-Aldrich, St Louis, MO, United States). Following incubation, the membranes were washed three times with TBST buffer and then incubated with secondary antibodies (Kangchen Biotechnology, Shanghai, China) for 1 h at room temperature. Subsequently, the blots were washed three times with TBST buffer and developed using an enhanced chemiluminescence reagent (Millipore Corporation, Bedford, MA, United States). The intensity of each protein band was quantitatively analyzed using ImageJ software.
# Hela cells [3] = experiment: Apoptosis assay, Annexin V-FITC/PI flow cytometry; format: cell-based, human; settings: 20 μM, 48 h
# Experimental: To assess whether the anti-proliferative effects of compound c13 on Hela cells were associated with apoptosis, cell apoptosis after treatment of compound c13 was measured using Annexin V-FITC and propidium iodide (PI) staining by flow cytometer. […] Compared with the normal control group, compound c13 at 20 μM markedly raised the apoptotic ratio of Hela cells to 62.03% ± 9.48%.
# Hela cells with a density of 1.5 × 10^5 cells/well were seeded in 12-well plates overnight for adhesion. The cells were treated with different concentrations of compounds (0, 5, 10, and 20 μM) for 48 h. After treatment, the cells were washed with PBS and stained with Annexin V-FITC and Propidium Iodide (PI) for 15 min in the dark. Cell apoptosis rate was detected by BD Accuri C6 Plus flow cytometry (BD Biosciences) and all analyses were performed with FlowJo software.
# Hela cells [4] = experiment: Cell cycle analysis by flow cytometry (PI); format: cell-based, human; settings: 48 h
# Experimental: To further evaluate the effect of compound c13 on the cell cycle, the cell cycle distributions of Hela cells after treatment of compound c13 were detected by flow cytometry.
# Hela cells with a density of 1.5 × 10^5 cells/well were seeded in 12-well plates overnight. Different concentrations of compounds (0, 5, 10, and 20 μM) were added to treat the cells for 48 h. After treatment, the cells were washed with PBS and then the cells were fixed with 70% ethanol at −20°C overnight. Subsequently, the cells were stained with PI staining solution containing 10 μg/mL RNAase for 30 min in the dark. The data was collected by BD Accuri C6 Plus flow cytometry (BD Biosciences). All analyses were performed with FlowJo software.
# HEK293T cells = experiment: MTT cell viability assay, HEK293T cells; format: cell-based; settings: Homo sapiens, HEK-293T, 48 h, tested 0-40 μM
# Experimental: (§1) To define the effects of compound c13 on cancer cell proliferation, the half-maximal inhibitory concentration (IC50) of compound c13 in Hela cells was calculated. Hela cells were treated with compound c13 at different concentrations (0 μM, 1 μM, 5 μM, 10 μM, 20 μM, and 40 μM) respectively for 48 h, and the cell viability was detected using the MTT method. […]. […] In contrast, its effect on the proliferation of HEK293T and NIH3T3 cells was minimal, with both IC50 values exceeding 100 μM.
# (§2) Figure S1. The effect of compound c13 on the survival rate of HEK293T, NIH3T3, and Hela cells. compound c13 (0, 10, 20, and 40 μM) was used to treat HEK293T, NIH3T3, and Hela cells for 48 hours, and the cell survival rate was detected using the MTT method (n=3).
# NIH3T3 cells = experiment: MTT cell viability assay, NIH3T3 cells; format: cell-based; settings: Mus musculus, 48 h, tested 0-40 μM
# Experimental: as §1, §2
# Hela cells [5] = experiment: Morphological profiles of Hela cells by microscope; format: cell-based, human; settings: 0, 5, 10, 20 μM
# Experimental: FIGURE 2 Anti-proliferative Effects of compound c13 on Hela cells. (A) Dose-dependent cytotoxicity of compound c13, assessed at concentrations ranging from 0 to 40 μM on HeLa cells. Cell viability was plotted against the logarithm of compound c13 concentrations (n = 3). (B) Morphological profiles of Hela cells were taken by microscope after treatment with compound c13 at different doses (0, 5, 10, and 20 μM) (n = 3). (C) Representative photomicrographs of plate colony formation assay data with compound c13 at different doses (0, 5, 10, and 20 μM) (n = 3).
# (§3) To validate the impact of compound c13 on cell proliferation, plate clone formation assay was performed.
# Hela cells [6] = experiment: Plate clone formation assay; format: cell-based, human; settings: 0, 5, 10, 20 μM, dose-dependent
# Experimental: as §3
# Hela cells with a density of 5 × 10^2 cells/well were seeded in 6-well plates overnight. The cells were treated with different concentrations of compounds (0, 5, 10, and 20 μM) were added and continued to be cultured at 37°C with 5% CO2. When more than 50 cell clone formations were visible, the culture medium was discharged. Then, the cells were fixed with 2 mL of 4% paraformaldehyde for 15 min and stained with 2 mL of crystal violet solution at room temperature for 15 min. A microscope was used to take photos and count the number of cell clones.
# Hela cells [7] = tested on: Hela cells; parameters: method as in Khanam et al., 2019; settings: ref Khanam et al., 2019; cited from earlier work
# Hela cells [8] = tested on: Hela cells; parameters: method as in Huang et al., 2022; settings: 72-h treatment; ref Huang et al., 2022; read-out: IC50, cytotoxicity to Hela cells; cited from earlier work
smiles,measurement,setting,value
"COc1cccc2c1C(=O)c1c(O)c3c(c(O)c1C2=O)C[C@@](O)(C(=O)CO)C[C@@H]3O[C@H]1C[C@H](N)[C@H](O)[C@H](C)O1 [Doxorubicin, reference compound]",viability at 10 µM,Hela cells [1],11.9 ± 1.2%
"COc1cc2ncnc(Nc3cccc(-c4cn(Cc5cc(Br)cc(Br)c5)nn4)c3)c2cc1OCCCN1CCOCC1 [c13, N-(3-(1-(3,5-dibromobenzyl)-1H-1,2,3-triazol-4-yl)phenyl)-7-methoxy-6-(3-morpholinopropoxy)quinazolin-4-amine]",Level of cleaved-PARP1,[2],increase
same,Level of cleaved-caspase 3,[2],increase
same,Level of cleaved-caspase 9,[2],tendency of upregulation but had no significant difference
same,Protein expression of pro-apoptotic Bax,[2],enhanced
same,Protein level of anti-apoptotic Bcl-2,[2],diminished
same,Ratio of Bax to Bcl-2,[2],raised
same,Protein level of full-length PARP1,[2]; vs control group,decreased
same,Protein level of full-length caspase 3,[2]; vs control group,decreased
same,Protein level of full-length caspase 9,[2]; vs control group,decreased
same,Apoptotic ratio of Hela cells,Hela cells [3],62.03% ± 9.48%
same,Proportion of the G1 phase,"Hela cells [4]; 20 μM, printed as % of control group",52.05% ± 2.85%
same,Percentage of cells in the G2/M phase,Hela cells [4]; 10 and 20 μM,upregulated
same,IC50,HEK293T cells,> 100 µM
same,IC50,NIH3T3 cells,> 100 µM
same,Morphological changes of Hela cells,Hela cells [5],severe morphological changes
same,viability at 10 µM,Hela cells [1],32.6 ± 8.61%
same,IC50,Hela cells [1]; read-out: IC50 against Hela cells,5.66 ± 0.35 µM
same,Colony formation ability of Hela cells,Hela cells [6],significantly inhibited the colony formation ability
"Nc1ccc(-c2nnc(CN3CCN(C(c4ccccc4)c4ccccc4)CC3)o2)cc1 [4d, N-benzhydryl-4-((5-(4-aminophenyl)-1,3,4-oxadiazol-2-yl)methyl)piperazine]","IC50, HeLa cells",Hela cells [7],28.13 ± 0.21 µg/mL
COc1cc2ncnc(Nc3ccc(F)c(Cl)c3)c2cc1OCCCN1CCOCC1 [Gefitinib],viability at 10 µM,Hela cells [1],75.9 ± 2.88%
C[C@]12CC[C@@H]3c4ccc(O)cc4CC[C@H]3[C@@H]1CC[C@@H]2O [β-estradiol],IC50,Hela cells [8],18.7 ± 1.57 µM
